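How tested: cells in 96-well plates exposed to compound for 48 hours at five concentrations. TGI is the concentration that stops growth completely.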
Key:
Assay in all cases: NCI tumour cell line growth inhibition, 48 h
[1] = test system: 786-0 renal
[2] = test system: A498 renal
[3] = test system: A549 NSCLC
[4] = test system: ACHN renal
[5] = test system: BT-549 breast
[6] = test system: CAKI-1 renal
[7] = test system: CCRF-CEM leukemia
[8] = test system: COLO 205 colon
[9] = test system: DU-145 prostate
[10] = test system: HCT-15 colon
[11] = test system: HL-60(TB) leukemia
[12] = test system: HOP-62 NSCLC
[13] = test system: HOP-92 NSCLC
[14] = test system: HS 578T breast
[15] = test system: HT29 colon
[16] = test system: IGROV1 ovarian
[17] = test system: K-562 leukemia
[18] = test system: KM12 colon
[19] = test system: LOX IMVI melanoma
[20] = test system: M14 melanoma
[21] = test system: MALME-3M melanoma
[22] = test system: MCF7 breast
[23] = test system: MDA-MB-231 breast
[24] = test system: MDA-MB-435
[25] = test system: MDA-N
[26] = test system: MOLT-4 leukemia
[27] = test system: NCI-H226 lung
[28] = test system: NCI-H23 lung
[29] = test system: NCI-H460 lung
[30] = test system: NCI/ADR-RES ovarian
[31] = test system: OVCAR-3 ovarian
[32] = test system: OVCAR-4 ovarian
[33] = test system: OVCAR-5 ovarian
[34] = test system: OVCAR-8 ovarian
[35] = test system: PC-3 prostate
[36] = test system: RPMI-8226 leukemia
[37] = test system: RXF 393 renal
[38] = test system: SF-268 CNS
[39] = test system: SF-295 CNS
[40] = test system: SF-539 CNS
[41] = test system: SK-MEL-2 melanoma
[42] = test system: SK-MEL-28 melanoma
[43] = test system: SK-MEL-5 melanoma
[44] = test system: SK-OV-3 ovarian
[45] = test system: SN12C renal
[46] = test system: SNB-19 CNS
[47] = test system: SNB-75 CNS
[48] = test system: SR leukemia
[49] = test system: SW-620 colon
[50] = test system: T-47D breast
[51] = test system: TK-10 renal
[52] = test system: U251 CNS
[53] = test system: UACC-257 melanoma
[54] = test system: UACC-62 melanoma
[55] = test system: UO-31 renal
[56] = test system: EKVX NSCLC
[57] = test system: HCC-2998 colon
[58] = test system: HCT-116 colon
[59] = test system: NCI-H522 lung

## COc1ccc(C[C@@H]2OC3(C=CC(=O)CC3Sc3ccccc3)O[C@H]2Cc2ccc(OC)cc2)cc1 (stereo partly drawn)
[1]
  TGI: 0.365 µM
[2]
  TGI: 16.1 µM
[3]
  TGI: 12.7 µM
[4]
  TGI: 2.81 µM
[5]
  TGI: 1.49 µM
[6]
  TGI: 4.97 µM
[7]
  TGI: 0.768 µM
[8]
  TGI: 3.36 µM
[9]
  TGI: 11.6 µM
[10]
  TGI: 2.8 µM
[11]
  TGI: 6.06 µM
[12]
  TGI: 2.5 µM
[13]
  TGI: 2.49 µM
[14]
  TGI: 4.19 µM
[15]
  TGI: 3.19 µM
[16]
  TGI: 2.13 µM
[17]
  TGI: > 100 µM
[18]
  TGI: 5.63 µM
[19]
  TGI: 1.72 µM
[20]
  TGI: 2.75 µM
[21]
  TGI: 4.02 µM
[22]
  TGI: 1.98 µM
[23]
  TGI: 7.35 µM
[24]
  TGI: 3.98 µM
[25]
  TGI: 4.98 µM
[26]
  TGI: 2.18 µM
[27]
  TGI: 3.33 µM
[28]
  TGI: 5.16 µM
[29]
  TGI: 12.1 µM
[30]
  TGI: 3.64 µM
[31]
  TGI: 3.15 µM
[32]
  TGI: 3.7 µM
[33]
  TGI: 2.58 µM
[34]
  TGI: 0.966 µM
[35]
  TGI: 3.95 µM
[36]
  TGI: 1.31 µM
[37]
  TGI: 0.348 µM
[38]
  TGI: 1.75 µM
[39]
  TGI: 4.69 µM
[40]
  TGI: 3 µM
[41]
  TGI: 3.05 µM
[42]
  TGI: 3.35 µM
[43]
  TGI: 3.09 µM
[44]
  TGI: 7.84 µM
[45]
  TGI: 5.22 µM
[46]
  TGI: 10.3 µM
[47]
  TGI: 3.05 µM
[48]
  TGI: 0.583 µM
[49]
  TGI: 0.946 µM
[50]
  TGI: 3.74 µM
[51]
  TGI: 3.88 µM
[52]
  TGI: 2.78 µM
[53]
  TGI: 3.16 µM
[54]
  TGI: 5.12 µM
[55]
  TGI: 2.28 µM

## COc1ccc(/C(=N/Nc2nc3ccccc3n2Cc2ccccc2)C(=O)O)cc1
[1]
  TGI: 42.3 µM
[2]
  TGI: 44.5 µM
[3]
  TGI: > 100 µM
[4]
  TGI: > 100 µM
[5]
  TGI: > 100 µM
[6]
  TGI: 45.8 µM
[7]
  TGI: 27.8 µM
[8]
  TGI: > 100 µM
[9]
  TGI: > 100 µM
[56]
  TGI: > 100 µM
[57]
  TGI: 48.3 µM
[58]
  TGI: > 100 µM
[10]
  TGI: > 100 µM
[11]
  TGI: 11.5 µM
[12]
  TGI: > 100 µM
[13]
  TGI: 49.1 µM
[14]
  TGI: > 100 µM
[15]
  TGI: > 100 µM
[16]
  TGI: 40.7 µM
[17]
  TGI: 68.5 µM
[18]
  TGI: > 100 µM
[19]
  TGI: 35.5 µM
[20]
  TGI: 38.9 µM
[21]
  TGI: 91.7 µM
[22]
  TGI: 51.2 µM
[23]
  TGI: 80.2 µM
[24]
  TGI: > 100 µM
[25]
  TGI: > 100 µM
[26]
  TGI: 79.6 µM
[27]
  TGI: 63 µM
[28]
  TGI: 43.3 µM
[29]
  TGI: 21.4 µM
[59]
  TGI: 68.8 µM
[30]
  TGI: 54 µM
[31]
  TGI: > 100 µM
[32]
  TGI: 62.2 µM
[33]
  TGI: > 100 µM
[34]
  TGI: > 100 µM
[35]
  TGI: > 100 µM
[36]
  TGI: 55.8 µM
[38]
  TGI: 63.2 µM
[39]
  TGI: > 100 µM
[40]
  TGI: 85.1 µM
[41]
  TGI: > 100 µM
[42]
  TGI: > 100 µM
[43]
  TGI: 37.6 µM
[44]
  TGI: 55 µM
[45]
  TGI: > 100 µM
[46]
  TGI: > 100 µM
[47]
  TGI: 81.9 µM
[48]
  TGI: 9.88 µM
[49]
  TGI: > 100 µM
[50]
  TGI: 70.7 µM
[51]
  TGI: > 100 µM
[52]
  TGI: > 100 µM
[53]
  TGI: > 100 µM
[54]
  TGI: 21.4 µM
[55]
  TGI: 76.5 µM
